Test results as given in ChEMBL document CHEMBL1201862, “PubChem BioAssay data set” (2004).
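Cultured in 96-well plates, cells were exposed to test compound for 48 hours across five concentrations. GI50 = concentration required for 50% inhibition of growth.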 Active and inactive are the calls of the source. No stated cut-off is given here; in the data, active = GI50 up to about 1.1 µM and inactive = higher.

What was measured:
Test in all cases: NCI tumour cell line growth inhibition, 48 h
[1] = tested on: SK-MEL-28
[2] = tested on: OVCAR-8
[3] = tested on: KM12
[4] = tested on: UO-31
[5] = tested on: U-251
[6] = tested on: SW-620
[7] = tested on: TK-10
[8] = tested on: SK-MEL-2
[9] = tested on: OVCAR-3
[10] = tested on: NCI-H460
[11] = tested on: SN12C
[12] = tested on: HCT-15
[13] = tested on: SNB-75
[14] = tested on: M14
[15] = tested on: SF-539
[16] = tested on: HL-60
[17] = tested on: OVCAR-4
[18] = tested on: NCI/ADR-RES
[19] = tested on: DU-145
[20] = tested on: T47D

Compound	GI50 [1]	GI50 [2]	GI50 [3]	GI50 [4]	GI50 [5]	GI50 [6]	GI50 [7]	GI50 [8]	GI50 [9]	GI50 [10]	GI50 [11]	GI50 [12] [µM]	GI50 [13]	GI50 [14]	GI50 [15]	GI50 [16]	GI50 [17]	GI50 [18]	GI50 [19]	GI50 [20]
CN(C)CCSc1cccc(-c2cc(-c3cccc(SCCN(C)C)c3)nc(SCCN(C)C)n2)c1	1.93 µM (inactive)	1.42 µM (inactive)	1.66 µM (inactive)	12.8 µM (inactive)	1.91 µM (inactive)	1.87 µM (inactive)	2.88 µM (inactive)	7.96 µM (inactive)	10.2 µM (inactive)	1.85 µM (inactive)	12.1 µM (inactive)	2.18	2.95 µM (inactive)	1.62 µM (inactive)	1.77 µM (inactive)	1.85 µM (inactive)	1.67 µM (inactive)	–	–	–
Cc1ccc(/N=N/c2c(O)c(C(=O)O)cc3ccccc23)cc1C	> 100 µM (inactive)	> 100 µM (inactive)	> 100 µM (inactive)	> 100 µM (inactive)	80.7 µM (inactive)	> 100 µM (inactive)	> 100 µM (inactive)	> 100 µM (inactive)	> 100 µM (inactive)	> 100 µM (inactive)	–	> 100	> 100 µM (inactive)	> 100 µM (inactive)	> 100 µM (inactive)	46.3 µM (inactive)	> 100 µM (inactive)	> 100 µM (inactive)	–	–
CCN(CC)Cc1cc(Nc2c3ccccc3nc3c2[nH]c2ccccc23)cc(CN(CC)CC)c1O	2.4 µM (inactive)	0.5 µM (active)	0.552 µM (active)	1.68 µM (inactive)	0.513 µM (active)	0.266 µM (active)	2.42 µM (inactive)	1.62 µM (inactive)	–	0.294 µM (active)	0.412 µM (active)	0.684	1.22 µM (inactive)	0.303 µM (active)	1.08 µM (active)	2.86 µM (inactive)	0.468 µM (active)	–	1.32 µM (inactive)	2.67 µM (inactive)
O=C(COc1ccc(OCC(=O)N2C(=O)CS/C2=N\c2ccccc2)cc1)N1C(=O)CS/C1=N\c1ccccc1	5.6 µM (inactive)	–	15.3 µM (inactive)	25.2 µM (inactive)	31.8 µM (inactive)	47.9 µM (inactive)	56.9 µM (inactive)	25.9 µM (inactive)	–	29 µM (inactive)	24.8 µM (inactive)	28.1	90.4 µM (inactive)	18.6 µM (inactive)	–	–	33.5 µM (inactive)	19.5 µM (inactive)	30.8 µM (inactive)	–
Cc1nc2ccc(F)cc2c2c1CCN2c1ccc(Cl)cc1	12.2 µM (inactive)	9.71 µM (inactive)	–	5.45 µM (inactive)	9.1 µM (inactive)	11.3 µM (inactive)	9.4 µM (inactive)	18.6 µM (inactive)	7.96 µM (inactive)	7.38 µM (inactive)	11.8 µM (inactive)	13.1	39.6 µM (inactive)	8.85 µM (inactive)	10.5 µM (inactive)	2.01 µM (inactive)	13.4 µM (inactive)	4.88 µM (inactive)	29.4 µM (inactive)	–
CCCCCC(C[N+]1(C)CCOCC1)C(=O)/C=C/c1ccccc1 (stereo not given)	16.2 µM (inactive)	12.7 µM (inactive)	2.8 µM (inactive)	16.1 µM (inactive)	7.67 µM (inactive)	2.62 µM (inactive)	20.3 µM (inactive)	15.2 µM (inactive)	14.4 µM (inactive)	16.4 µM (inactive)	13.5 µM (inactive)	8.34	7.33 µM (inactive)	11.1 µM (inactive)	9.79 µM (inactive)	6.89 µM (inactive)	11.2 µM (inactive)	–	–	–
CCOC(=O)C1=C(NC)OC/C1=N\NC(=O)c1ccccc1O	30.8 µM (inactive)	24.2 µM (inactive)	53.2 µM (inactive)	4.83 µM (inactive)	19.3 µM (inactive)	31.8 µM (inactive)	> 100 µM (inactive)	12.8 µM (inactive)	19.9 µM (inactive)	28.2 µM (inactive)	45.9 µM (inactive)	–	69.3 µM (inactive)	22.5 µM (inactive)	13 µM (inactive)	19.3 µM (inactive)	16.3 µM (inactive)	–	–	–
COc1ccc(OC(=O)CC2Cc3cc(OC)c(OC)c(OC)c3-c3ccc(SC)c(=O)cc32)cc1 (stereo not given)	0.698 µM (active)	0.27 µM (active)	0.107 µM (active)	0.792 µM (active)	0.224 µM (active)	0.0783 µM (active)	29.7 µM (inactive)	2.14 µM (inactive)	0.185 µM (active)	0.245 µM (active)	0.3 µM (active)	0.467	2.52 µM (inactive)	0.34 µM (active)	0.114 µM (active)	0.0893 µM (active)	11.7 µM (inactive)	–	–	–
